From the supplement of paper PMC10307832

Experiments:
Experiment in all cases: relative viability (nuclei count vs DMSO), 5 days (fraction); higher = more cells survive
LCLC-103H = test system: LCLC-103H
Procedure, shortened: (§1)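 Relative viability was taken as the ratio of nuclei in treated wells to nuclei in vehicle wells. Lung cancer cell lines in 1536-well plates received compounds by pin tool one day after seeding, either one drug alone or a fixed anchor-drug dose plus five library-drug doses (not always all listed) in √10 steps. Nuclei were counted on 4× images after 5 days of treatment, and values are medians of duplicate plates.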

LXF-289 = test system: LXF-289
Procedure, shortened: as §1

NCI-H1355 = test system: NCI-H1355
Procedure, shortened: as §1

NCI-H1651 = test system: NCI-H1651
Procedure, shortened: as §1

NCI-H1755 = test system: NCI-H1755
Procedure, shortened: as §1

NCI-H1915 = test system: NCI-H1915
Procedure, shortened: as §1

NCI-H2170 = test system: NCI-H2170
Procedure, shortened: as §1

NCI-H2347 = test system: NCI-H2347
Procedure, shortened: as §1

NCI-H3122 = test system: NCI-H3122
Procedure, shortened: as §1

NCI-H322M = test system: NCI-H322M
Procedure, shortened: as §1

NCI-H441 = test system: NCI-H441
Procedure, shortened: as §1

NCI-H460 = test system: NCI-H460
Procedure, shortened: as §1

NCI-H520 = test system: NCI-H520
Procedure, shortened: as §1

NCI-H596 = test system: NCI-H596
Procedure, shortened: as §1

NCI-H650 = test system: NCI-H650
Procedure, shortened: as §1

NCI-H661 = test system: NCI-H661
Procedure, shortened: as §1

NCI-H727 = test system: NCI-H727
Procedure, shortened: as §1

PC-14 = test system: PC-14
Procedure, shortened: as §1

RERF-LC-KJ = test system: RERF-LC-KJ
Procedure, shortened: as §1

SK-MES-1 = test system: SK-MES-1
Procedure, shortened: as §1

SW 900 = test system: SW 900
Procedure, shortened: as §1

Question: Which relative viability (LCLC-103H; first compound 0.04 µM) does the source give for O=C(O)c1ccc(-c2c[nH]c3ncc(-c4ccccc4)cc23)cc1C1CCCC1 + O=C(CCCCCCC(=O)Nc1ccccc1)NO [Vorinostat] (partner 1 µM) here?
Answer: Its relative viability is 0.777.

Question: And the relative viability (LCLC-103H; first compound 0.1265 µM)?
Answer: The relative viability was 0.758.

Question: What about the relative viability (LCLC-103H; first compound 0.4 µM) of the same compound?
Answer: The relative viability was 0.779.

Question: And the relative viability (LCLC-103H; first compound 1.265 µM)?
Answer: The relative viability was 0.76.

Question: What about the relative viability (LXF-289; first compound 0.04 µM) of the same compound?
Answer: Its relative viability is 0.769.

Question: And the relative viability (LXF-289; first compound 0.1265 µM)?
Answer: Its relative viability is 0.773.

Question: What about the relative viability (LXF-289; first compound 0.4 µM) of the same compound?
Answer: Its relative viability is 0.632.

Question: What about the relative viability (LXF-289; first compound 1.265 µM) of the same compound?
Answer: The relative viability was 0.398.

Question: What about the relative viability (NCI-H1355; first compound 0.04 µM) of the same compound?
Answer: The relative viability was 0.647.

Question: What about the relative viability (NCI-H1355; first compound 0.1265 µM) of the same compound?
Answer: Its relative viability is 0.753.

Question: What about the relative viability (NCI-H1355; first compound 0.4 µM) of the same compound?
Answer: The relative viability was 0.694.

Question: What about the relative viability (NCI-H1355; first compound 1.265 µM) of the same compound?
Answer: Its relative viability is 0.615.

Question: What about the relative viability (NCI-H1651; first compound 0.04 µM) of the same compound?
Answer: The relative viability was 0.349.

Question: What about the relative viability (NCI-H1651; first compound 0.1265 µM) of the same compound?
Answer: Its relative viability is 0.596.

Question: What about the relative viability (NCI-H1651; first compound 0.4 µM) of the same compound?
Answer: Its relative viability is 0.62.

Question: And the relative viability (NCI-H1651; first compound 1.265 µM)?
Answer: Its relative viability is 0.462.

Question: What about the relative viability (NCI-H1755; first compound 0.04 µM) of the same compound?
Answer: Its relative viability is 0.762.

Question: What about the relative viability (NCI-H1755; first compound 0.1265 µM) of the same compound?
Answer: The relative viability was 0.806.

Question: And the relative viability (NCI-H1755; first compound 0.4 µM)?
Answer: The relative viability was 0.797.

Question: And the relative viability (NCI-H1755; first compound 1.265 µM)?
Answer: Its relative viability is 0.745.

Question: And the relative viability (NCI-H1915; first compound 0.04 µM)?
Answer: The relative viability was 0.532.

Question: And the relative viability (NCI-H1915; first compound 0.1265 µM)?
Answer: The relative viability was 0.525.

Question: And the relative viability (NCI-H1915; first compound 0.4 µM)?
Answer: Its relative viability is 0.501.

Question: What about the relative viability (NCI-H1915; first compound 1.265 µM) of the same compound?
Answer: Its relative viability is 0.479.

Question: And the relative viability (NCI-H2170; first compound 0.04 µM)?
Answer: Its relative viability is 0.82.

Question: What about the relative viability (NCI-H2170; first compound 0.1265 µM) of the same compound?
Answer: The relative viability was 0.863.

Question: And the relative viability (NCI-H2170; first compound 0.4 µM)?
Answer: The relative viability was 0.893.

Question: And the relative viability (NCI-H2170; first compound 1.265 µM)?
Answer: The relative viability was 0.734.

Question: And the relative viability (NCI-H2347; first compound 0.04 µM)?
Answer: The relative viability was 0.576.

Question: What about the relative viability (NCI-H2347; first compound 0.1265 µM) of the same compound?
Answer: Its relative viability is 0.773.

Question: And the relative viability (NCI-H2347; first compound 0.4 µM)?
Answer: The relative viability was 0.597.

Question: And the relative viability (NCI-H2347; first compound 1.265 µM)?
Answer: Its relative viability is 0.46.

Question: What about the relative viability (NCI-H3122; first compound 0.04 µM) of the same compound?
Answer: Its relative viability is 1.1.

Question: What about the relative viability (NCI-H3122; first compound 0.1265 µM) of the same compound?
Answer: The relative viability was 1.07.

Question: And the relative viability (NCI-H3122; first compound 0.4 µM)?
Answer: Its relative viability is 1.12.

Question: And the relative viability (NCI-H3122; first compound 1.265 µM)?
Answer: The relative viability was 0.855.

Question: What about the relative viability (NCI-H322M; first compound 0.04 µM) of the same compound?
Answer: The relative viability was 0.909.

Question: And the relative viability (NCI-H322M; first compound 0.1265 µM)?
Answer: Its relative viability is 0.858.

Question: What about the relative viability (NCI-H322M; first compound 0.4 µM) of the same compound?
Answer: The relative viability was 0.898.

Question: And the relative viability (NCI-H322M; first compound 1.265 µM)?
Answer: The relative viability was 0.855.

Question: And the relative viability (NCI-H441; first compound 0.04 µM)?
Answer: The relative viability was 0.866.

Question: What about the relative viability (NCI-H441; first compound 0.1265 µM) of the same compound?
Answer: Its relative viability is 0.837.

Question: And the relative viability (NCI-H441; first compound 0.4 µM)?
Answer: The relative viability was 0.615.

Question: And the relative viability (NCI-H441; first compound 1.265 µM)?
Answer: Its relative viability is 0.445.

Question: And the relative viability (NCI-H460; first compound 0.04 µM)?
Answer: Its relative viability is 0.642.

Question: And the relative viability (NCI-H460; first compound 0.1265 µM)?
Answer: Its relative viability is 0.842.

Question: What about the relative viability (NCI-H460; first compound 0.4 µM) of the same compound?
Answer: Its relative viability is 0.831.

Question: What about the relative viability (NCI-H460; first compound 1.265 µM) of the same compound?
Answer: Its relative viability is 0.603.

Question: And the relative viability (NCI-H520; first compound 0.04 µM)?
Answer: The relative viability was 0.643.

Question: And the relative viability (NCI-H520; first compound 0.1265 µM)?
Answer: Its relative viability is 0.816.

Question: And the relative viability (NCI-H520; first compound 0.4 µM)?
Answer: Its relative viability is 0.71.

Question: And the relative viability (NCI-H520; first compound 1.265 µM)?
Answer: The relative viability was 0.484.

Question: And the relative viability (NCI-H596; first compound 0.04 µM)?
Answer: Its relative viability is 0.499.

Question: And the relative viability (NCI-H596; first compound 0.1265 µM)?
Answer: The relative viability was 0.657.

Question: What about the relative viability (NCI-H596; first compound 0.4 µM) of the same compound?
Answer: Its relative viability is 0.583.

Question: And the relative viability (NCI-H596; first compound 1.265 µM)?
Answer: Its relative viability is 0.571.

Question: What about the relative viability (NCI-H650; first compound 0.04 µM) of the same compound?
Answer: Its relative viability is 0.48.

Question: What about the relative viability (NCI-H650; first compound 0.1265 µM) of the same compound?
Answer: The relative viability was 0.394.

Question: What about the relative viability (NCI-H650; first compound 0.4 µM) of the same compound?
Answer: The relative viability was 0.413.

Question: What about the relative viability (NCI-H650; first compound 1.265 µM) of the same compound?
Answer: Its relative viability is 0.22.

Question: What about the relative viability (NCI-H661; first compound 0.04 µM) of the same compound?
Answer: Its relative viability is 0.766.

Question: And the relative viability (NCI-H661; first compound 0.1265 µM)?
Answer: The relative viability was 0.763.

Question: What about the relative viability (NCI-H661; first compound 0.4 µM) of the same compound?
Answer: Its relative viability is 0.787.

Question: And the relative viability (NCI-H661; first compound 1.265 µM)?
Answer: The relative viability was 0.787.

Question: And the relative viability (NCI-H727; first compound 0.04 µM)?
Answer: Its relative viability is 0.991.

Question: And the relative viability (NCI-H727; first compound 0.1265 µM)?
Answer: Its relative viability is 1.19.

Question: And the relative viability (NCI-H727; first compound 0.4 µM)?
Answer: The relative viability was 1.31.

Question: What about the relative viability (NCI-H727; first compound 1.265 µM) of the same compound?
Answer: The relative viability was 1.18.

Question: What about the relative viability (PC-14; first compound 0.04 µM) of the same compound?
Answer: Its relative viability is 0.733.

Question: What about the relative viability (PC-14; first compound 0.1265 µM) of the same compound?
Answer: Its relative viability is 0.781.

Question: What about the relative viability (PC-14; first compound 0.4 µM) of the same compound?
Answer: The relative viability was 0.786.

Question: What about the relative viability (PC-14; first compound 1.265 µM) of the same compound?
Answer: Its relative viability is 0.723.

Question: And the relative viability (RERF-LC-KJ; first compound 0.04 µM)?
Answer: The relative viability was 0.714.

Question: And the relative viability (RERF-LC-KJ; first compound 0.1265 µM)?
Answer: Its relative viability is 0.74.

Question: What about the relative viability (RERF-LC-KJ; first compound 0.4 µM) of the same compound?
Answer: Its relative viability is 0.724.

Question: What about the relative viability (RERF-LC-KJ; first compound 1.265 µM) of the same compound?
Answer: The relative viability was 0.574.

Question: And the relative viability (SK-MES-1; first compound 0.04 µM)?
Answer: Its relative viability is 1.13.

Question: What about the relative viability (SK-MES-1; first compound 0.1265 µM) of the same compound?
Answer: The relative viability was 1.19.

Question: And the relative viability (SK-MES-1; first compound 0.4 µM)?
Answer: The relative viability was 1.27.

Question: And the relative viability (SK-MES-1; first compound 1.265 µM)?
Answer: Its relative viability is 0.876.

Question: And the relative viability (SW 900; first compound 0.04 µM)?
Answer: Its relative viability is 0.602.

Question: And the relative viability (SW 900; first compound 0.1265 µM)?
Answer: The relative viability was 0.611.

Question: And the relative viability (SW 900; first compound 0.4 µM)?
Answer: Its relative viability is 0.582.

Question: What about the relative viability (SW 900; first compound 1.265 µM) of the same compound?
Answer: The relative viability was 0.437.
